# Experiments:
# Format in all cases: cell-based
# [1] = test system: IL-17FF; test: IL-17FF production by PHA-stimulated human PBMC (human IL-17F ELI-Pair); details: PHA-stimulated human PBMC, 48 hours; column B; read-out: IC50 (IL-17FF)
# Procedure: (§1) Analysis of Proliferation of and Cytokine Production by Human PBMC Stimulated with PHA
# (§2) Peripheral blood mononuclear cells (PBMC) from healthy human donors were purified using Accuspin™ System-Histopaque-1077 (Sigma) according to the protocol recommended by the manufacturer. Purified PBMC were then washed twice with phosphate-buffered saline (PBS) and resuspended in RPMI1640 culture medium supplemented with 10% dialyzed heat inactivated fetal calf serum, 1.5 mM L-glutamine, 100 U penicillin/ml, and […] (all from PAN Biotech, Aidenbach, Germany). For stimulation, PBMC were seeded at 1×10^5 cells/well, activated with 2 μg/ml phytohaemagglutinin (PHA, Sigma) and incubated with the test compounds for 48 hours. IL-17A, IL-17F and INF-γ were then determined in the culture supernatant using a Luminex BioPlex system, following the manufacturer's instructions (BioRad, Munich, Germany). For screening, compounds were used at 10, 1, 0.1 and 0.01 μM. To determine the IC50, compounds were titrated semilogarithmically.
# (§3) Cytokines were determined in the aforementioned culture supernatant using the following methods: IL-17AA/AF was measured using the Luminex BioPlex system (BioRad, Munich, Germany); IL-17AA using the human homodimer IL-17A ELISA Ready Set Go Kit from eBioscience (Frankfurt, Germany); IL-17FF using the human IL-17F ELI-Pair from Hölzel DiagnosticaGmBH (Köln, Germany); and IFN-γ using the OptEIA human IFN-g ELISA from BD Bioscience (Heidelberg, Germany), all following the manufacturer's instructions.
# [2] = test system: IFN-γ; test: IFN-γ production by PHA-stimulated human PBMC (OptEIA human IFN-g ELISA); details: PHA-stimulated human PBMC, 48 hours; column C; read-out: IC50 (IFNγ)
# Procedure: as §1, §2, §3
# [3] = test system: PBMC from healthy human donors; test: T cell proliferation assay (PHA-stimulated human PBMC, BrdU ELISA); details: PHA-stimulated human PBMC, 48 hours, column D, read-out: IC50 (Tcell proliferation)
# Procedure: Cell proliferation was analysed using the BrdU based cell proliferation ELISA from Roche (Mannheim, Germany) according to the manufacturer's instructions. T Cell Proliferation Assay Peripheral blood mononuclear cells (PBMC) from healthy human donors were isolated by centrifugation over Ficoll-Hypaque (Sigma-Aldrich, Germany) according to manufacturer's instructions. Purified PBMC were washed twice with PBS and resuspended in RPMI1640 culture medium supplemented with 10% dialyzed heat inactivated fetal calf serum, 1.5 mM L-glutamine, 100 U penicillin/ml, and […] (all from PAN Biotech, Aidenbach, Germany). For stimulation, PBMC were seeded at 1×10^5 cells/well, activated with 2 μg/ml phytohaemagglutinin (PHA, Sigma) and incubated with the test compound. After 48 hours proliferation was measured using the BrdU based cell proliferation ELISA from Roche (Mannheim, Germany) according to the manual.
IC50 [1] [nM],IC50 [2] [nM],SMILES,IC50 [3] [nM]
1000 to 10000,1000 to 10000,"CON(C)C(=O)c1c(-c2c(F)cccc2Cl)noc1-c1cnn(-c2cccc(NC(C)=O)c2)c1C(F)(F)F [IB-87, 5-(1-(3-acetamidophenyl)-5-(trifluoromethyl)-1H-pyrazol-4-yl)-3-(2-chloro-6-fluorophenyl)-N-methoxy-N-methylisoxazole-4-carboxamide]",–
1000 to 10000,1000 to 10000,"CON(C)C(=O)c1c(-c2c(F)cccc2Cl)noc1-c1cnn(-c2cccc(S(N)(=O)=O)c2)c1C(F)(F)F [IB-66, 3-(2-chloro-6-fluorophenyl)-N-methoxy-N-methyl-5-(1-(3-sulfamoylphenyl)-5-(trifluoromethyl)-1H-pyrazol-4-yl)isoxazole-4-carboxamide]",–
–,1000 to 10000,"O=C(c1c(-c2c(F)cccc2Cl)noc1-c1cnn(-c2ccccc2F)c1C(F)(F)F)N1CCN(Cc2cccc(Cl)c2)CC1 [Example I-24, (3-(2-chloro-6-fluorophenyl)-5-(1-(2-fluorophenyl)-5-(trifluoromethyl)-1H-pyrazol-4-yl)isoxazol-4-yl)(4-(3-chlorobenzyl)piperazin-1-yl)methanone]",100 to 1000
1000 to 10000,1000 to 10000,"CCOC(=O)c1c(-c2c(Cl)cncc2Cl)noc1-c1cnn(-c2cccc(F)c2)c1C(F)(F)F [IB-103, ethyl 3-(3,5-dichloropyridin-4-yl)-5-(1-(3-fluorophenyl)-5-(trifluoromethyl)-1H-pyrazol-4-yl)isoxazole-4-carboxylate]",–
100 to 1000,100 to 1000,"COC(=O)c1c(-c2c(F)cccc2Cl)noc1-c1cnn(-c2ccccc2OC)c1C(F)(F)F [Example I-52, methyl 3-(2-chloro-6-fluorophenyl)-5-(1-(2-methoxyphenyl)-5-(trifluoromethyl)-1H-pyrazol-4-yl)isoxazole-4-carboxylate]",–
100 to 1000,100 to 1000,"O=C(c1c(-c2c(F)cccc2Cl)noc1-c1cnn(-c2ccccc2F)c1C(F)(F)F)N1CCCC1 [Example I-22, (3-(2-chloro-6-fluorophenyl)-5-(1-(2-fluorophenyl)-5-(trifluoromethyl)-1H-pyrazol-4-yl)isoxazol-4-yl)(pyrrolidin-1-yl)methanone]",–
1000 to 10000,–,"CCOC(=O)c1c(-c2ccc(Cl)cc2)noc1-c1cnn(-c2ccc(F)cc2)c1C(F)(F)F [Example I-78, ethyl 3-(4-chlorophenyl)-5-(1-(4-fluorophenyl)-5-(trifluoromethyl)-1H-pyrazol-4-yl)isoxazole-4-carboxylate]",–
1000 to 10000,–,"CNC(=O)c1c(-c2ccccc2F)noc1-c1cnn(-c2cccc(F)c2)c1C(F)(F)F [Example I-93, 3-(2-fluorophenyl)-5-(1-(3-fluorophenyl)-5-(trifluoromethyl)-1H-pyrazol-4-yl)-N-methylisoxazole-4-carboxamide]",–
1000 to 10000,–,"CNC(=O)c1c(-c2c(F)cccc2Cl)noc1-c1cnn(-c2ccccc2Cl)c1C(F)(F)F [IB-50, 3-(2-chloro-6-fluorophenyl)-5-(1-(2-chlorophenyl)-5-(trifluoromethyl)-1H-pyrazol-4-yl)-N-methylisoxazole-4-carboxamide]",–
–,1000 to 10000,"CC(C)=NNC(=O)c1c(-c2c(F)cccc2Cl)noc1-c1cnn(-c2cccc(F)c2)c1 [IB-29, 3-(2-chloro-6-fluorophenyl)-5-(1-(3-fluorophenyl)-1H-pyrazol-4-yl)-N′-(propan-2-ylidene)isoxazole-4-carbohydrazide]",1000 to 10000
–,100 to 1000,"CN1CCN(C(=O)c2c(-c3c(F)cccc3Cl)noc2-c2cnn(-c3cccc(Cl)c3)c2C(F)(F)F)CC1 [IB-34, (3-(2-chloro-6-fluorophenyl)-5-(1-(3-chlorophenyl)-5-(trifluoromethyl)-1H-pyrazol-4-yl)-isoxazol-4-yl)(4-methylpiperazin-1-yl)methanone]",100 to 1000
–,10 to 100,"O=C(c1c(-c2c(F)cccc2Cl)noc1-c1cnn(-c2ccccc2F)c1C(F)(F)F)N1CCCCC1 [Example I-21, (3-(2-chloro-6-fluorophenyl)-5-(1-(2-fluorophenyl)-5-(trifluoromethyl)-1H-pyrazol-4-yl)isoxazol-4-yl)(piperidin-1-yl)methanone]",10 to 100
1000 to 10000,–,"Fc1cccc(-n2ncc(-c3onc(-c4c(F)cccc4Cl)c3C(=S)N3CCOCC3)c2C(F)(F)F)c1 [Example I-129, (3-(2-chloro-6-fluorophenyl)-5-(1-(3-fluorophenyl)-5-(trifluoromethyl)-1H-pyrazol-4-yl)isoxazol-4-yl)(morpholino)meth-anethione]",–
–,1000 to 10000,"CC(=O)Nc1c(-c2c(F)cccc2Cl)noc1-c1cnn(-c2cccc(Cl)c2)c1C(F)(F)F [IB-39, N-(3-(2-chloro-6-fluorophenyl)-5-(1-(3-chlorophenyl)-5-(trifluoromethyl)-1H-pyrazol-4-yl)-isoxazol-4-yl)acetamide]",1000 to 10000
–,100 to 1000,"CNC(=S)c1c(-c2c(F)cccc2Cl)noc1-c1cnn(-c2cccc(Cl)c2)c1C(F)(F)F [Example I-72, 3-(2-chloro-6-fluorophenyl)-5-(1-(3-chlorophenyl)-5-(trifluoromethyl)-1H-pyrazol-4-yl)-N-methylisoxazole-4-carbothioamide]",100 to 1000
1000 to 10000,–,"Fc1cccc(Cl)c1-c1noc(-c2cnn(-c3ccc(OC(F)(F)F)cc3)c2C(F)(F)F)c1Br [IB-25, 4-bromo-3-(2-chloro-6-fluorophenyl)-5-(1-(4-(trifluoromethoxy)phenyl)-5-(trifluoromethyl)-1H-pyrazol-4-yl)isoxazole]",–
–,1000 to 10000,"CCOC(=O)c1c(-c2c(F)cccc2Cl)noc1-c1cnn(-c2ccc(C#N)cc2)c1C(F)(F)F [IB-40, ethyl 3-(2-chloro-6-fluorophenyl)-5-(1-(4-cyanophenyl)-5-(trifluoromethyl)-1H-pyrazol-4-yl)-isoxazole-4-carboxylate]",1000 to 10000
1000 to 10000,–,"CNC(=O)c1c(-c2ccc(Cl)c(Cl)c2)noc1-c1cnn(-c2cccc(F)c2)c1C(F)(F)F [Example I-98, 3-(3,4-dichlorophenyl)-5-(1-(3-fluorophenyl)-5-(trifluoromethyl)-1H-pyrazol-4-yl)-N-methylisoxazole-4-carboxamide]",–
–,1000 to 10000,"CON(C)C(=O)c1c(-c2c(F)cccc2Cl)noc1-c1cnn(-c2ccccc2Br)c1C(F)(F)F [IB-74, 5-(1-(-2-bromophenyl)-5-(trifluoromethyl)-1H-pyrazol-4-yl)-3-(2-chloro-6-fluorophenyl)-N-methoxy-N-methylisoxazole-4-carboxamide]",1000 to 10000
–,1000 to 10000,"CC(C)OC(=O)c1c(-c2c(F)cccc2Cl)noc1-c1cnn(-c2cccc(S(N)(=O)=O)c2)c1C(F)(F)F [IB-73, isopropyl 3-(2-chloro-6-fluorophenyl)-5-(1-(3-sulfamoylphenyl)-5-(trifluoromethyl)-1H-pyrazol-4-yl)isoxazole-4-carboxylate]",1000 to 10000
–,100 to 1000,"Fc1ccccc1-n1ncc(-c2onc(-c3c(F)cccc3Cl)c2Br)c1C(F)(F)F [IB-26, 4-bromo-3-(2-chloro-6-fluorophenyl)-5-(1-(2-fluorophenyl)-5-(trifluoromethyl)-1H-pyrazol-4-yl)isoxazole]",1000 to 10000
–,1000 to 10000,"NC(=O)c1c(-c2c(F)cccc2Cl)noc1-c1cnn(-c2cccc(F)c2)c1C(F)(F)F [Example I-124, 3-(2-chloro-6-fluorophenyl)-5-(1-(3-fluorophenyl)-5-(trifluoromethyl)-1H-pyrazol-4-yl)isoxazole-4-carboxamide]",1000 to 10000
1000 to 10000,–,"CNC(=O)c1c(-c2c(F)cccc2Cl)noc1-c1cnn(-c2cccc(NC(C)=O)c2)c1C(F)(F)F [IB-91, 5-(1-(3-acetamidophenyl)-5-(trifluoromethyl)-1H-pyrazol-4-yl)-3-(2-chloro-6-fluorophenyl)-N-methylisoxazole-4-carboxamide]",–
–,1000 to 10000,"COC(=O)c1c(-c2ccccc2)noc1-c1cnn(-c2cccc(F)c2)c1C(F)(F)F [Example I-51, methyl 5-(1-(3-fluorophenyl)-5-(trifluoromethyl)-1H-pyrazol-4-yl)-3-phenylisoxazole-4-carboxylate]",1000 to 10000
1000 to 10000,–,"CNC(=O)c1c(-c2c(F)cccc2Cl)noc1-c1cnn(-c2ccc(OC(F)(F)F)cc2)c1C(F)(F)F [Example I-56, 3-(2-chloro-6-fluorophenyl)-N-methyl-5-(1-(4-(trifluoromethoxy)phenyl)-5-(trifluoromethyl)-1H-pyrazol-4-yl)isoxazole-4-carboxamide]",–
